Data: patent US5672715A, “Herbicidal substituted 3-aryl-pyrazoles” (Monsanto Company, priority 1995, dated 1997)
Where two headings read alike, the source gives them in different places.

Legend:
Format in all cases: in vivo
[1] = test system: Bedstraw Catchweed; test: post-emergence herbicide test
In short: (§1)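 Each pan is moved to a spraying chamber when plants are two to three weeks old and sprayed by atomizer at 10 psig, delivering 1870 L/Ha containing about 0.4% by volume emulsifier. Greenhouse-grown from seed; percent inhibition scored.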

[2] = test system: Soybean; test: post-emergence herbicide test
In short: as §1

[3] = test system: Barnyardgrass; test: post-emergence herbicide test; conditions: Echinochloa crus-galli, post-emergence, read-out: % plant inhibition
In short: as §1

[4] = test system: Corn; test: post-emergence herbicide test; conditions: Zea mays, post-emergence, read-out: % plant inhibition
In short: as §1

[5] = test system: Morning Glory; test: post-emergence herbicide test
In short: as §1

[6] = test system: Yellow Nutsedge; test: post-emergence herbicide test; conditions: Cyperus, read-out: % plant inhibition
In short: as §1

[7] = test system: Wheat; test: post-emergence herbicide test
In short: as §1

[8] = test system: Cocklebur; test: post-emergence herbicide test; conditions: Xanthium strumarium, post-emergence, read-out: % plant inhibition
In short: as §1

[9] = test system: Yellow Foxtail; test: post-emergence herbicide test; conditions: Setaria, read-out: % plant inhibition
In short: as §1

[10] = test system: Common Chickweed; test: post-emergence herbicide test
In short: as §1

[11] = test system: Velvetleaf; test: post-emergence herbicide test
In short: as §1

[12] = test system: Blackgrass; test: post-emergence herbicide test; conditions: Alopecurus myosuroides, post-emergence, read-out: % plant inhibition; for inhibition at 7.95803 g/ha: 0.0071 lb/A; for inhibition at 40.0143 g/ha: 0.0357 lb/A; for inhibition at 1000.92 g/ha: 0.893 lb/A; for inhibition at 5043.82 g/ha: 4.5 lb/A
In short: as §1

[13] = test system: Morning Glory; test: pre-emergence herbicide test
In short: (§2)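 Sown seeds covered with dosed topsoil; carrier acetone or water; greenhouse, watered from below, optional 1/4 in overhead irrigation post-treatment; % inhibition at ~14 d.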

[14] = test system: Yellow Nutsedge; test: pre-emergence herbicide test; conditions: Cyperus, read-out: % plant inhibition
In short: as §2

[15] = test system: Yellow Foxtail; test: pre-emergence herbicide test; conditions: Setaria, read-out: % plant inhibition
In short: as §2

[16] = test system: Velvetleaf; test: pre-emergence herbicide test
In short: as §2

With `Cc1c(-c2cc(F)c([N+](=O)[O-])cc2F)nn(C)c1C(F)(F)F` [Compound 35] the “% plant inhibition” value ([1]; 0.893 lb/A) was 95%, the inhibition at 7.95803 g/ha ([1]; Galium aparine, post-emergence, 0.0071 lb/A, read-out: % plant inhibition) was 0% and the inhibition at 40.0143 g/ha ([1]; Galium aparine, post-emergence, 0.0357 lb/A, read-out: % plant inhibition) was 25%. The inhibition at 1000.92 g/ha ([1]; Galium aparine, post-emergence, 0.893 lb/A, read-out: % plant inhibition) was 75%, the inhibition at 5043.82 g/ha ([1]; Galium aparine, post-emergence, 4.5 lb/A, read-out: % plant inhibition) was 85% and the “% plant inhibition” value ([2]; 0.893 lb/A) was 30%. For the same compound, the inhibition at 7.95803 g/ha ([2]; Glycine max, post-emergence, 0.0071 lb/A, read-out: % plant inhibition) was 0%, the inhibition at 40.0143 g/ha ([2]; Glycine max, post-emergence, 0.0357 lb/A, read-out: % plant inhibition) was 0% and the inhibition ([2]; Glycine max, post-emergence, 0.1725 lb/A, read-out: % plant inhibition) was 20%. For the same compound, the inhibition at 200.072 g/ha ([2]; Glycine max, post-emergence, 0.1785 lb/A, read-out: % plant inhibition) was 25%, the inhibition at 5043.82 g/ha ([2]; Glycine max, post-emergence, 4.5 lb/A, read-out: % plant inhibition) was 55% and the inhibition at 7.95803 g/ha ([3]; 0.0071 lb/A) was 0%. It also gave an inhibition at 40.0143 g/ha ([3]; 0.0357 lb/A) of 0%, an inhibition at 200.072 g/ha ([3]; 0.1785 lb/A) of 0% and an inhibition at 5043.82 g/ha ([3]; 4.5 lb/A) of 65%. The inhibition at 7.95803 g/ha ([4]; 0.0071 lb/A) was 0%, the inhibition at 40.0143 g/ha ([4]; 0.0357 lb/A) was 0% and the inhibition ([4]; 0.1725 lb/A) was 30%. For the same compound, the inhibition at 200.072 g/ha ([4]; 0.1785 lb/A) was 20%, the inhibition at 5043.82 g/ha ([4]; 4.5 lb/A) was 75% and the “% plant inhibition” value ([5]; 0.893 lb/A) was 100%. The inhibition at 7.95803 g/ha ([5]; Ipomoea, post-emergence, 0.0071 lb/A, read-out: % plant inhibition) was 0%, the inhibition at 40.0143 g/ha ([5]; Ipomoea, post-emergence, 0.0357 lb/A, read-out: % plant inhibition) was 0% and the inhibition ([5]; Ipomoea, post-emergence, 0.1725 lb/A, read-out: % plant inhibition) was 65%. For the same compound, the inhibition at 200.072 g/ha ([5]; Ipomoea, post-emergence, 0.1785 lb/A, read-out: % plant inhibition) was 75%, the inhibition at 1000.92 g/ha ([5]; Ipomoea, post-emergence, 0.893 lb/A, read-out: % plant inhibition) was 85% and the inhibition at 5043.82 g/ha ([5]; Ipomoea, post-emergence, 4.5 lb/A, read-out: % plant inhibition) was 95%. The inhibition at 7.95803 g/ha ([6]; 0.0071 lb/A) was 0%, the inhibition at 40.0143 g/ha ([6]; 0.0357 lb/A) was 0% and the inhibition ([6]; 0.1725 lb/A) was 0%. It also gave an inhibition at 200.072 g/ha ([6]; 0.1785 lb/A) of 0%, an inhibition at 1000.92 g/ha ([6]; 0.893 lb/A) of 0% and an inhibition at 5043.82 g/ha ([6]; 4.5 lb/A) of 0%. The “% plant inhibition” value ([7]; 0.1785 lb/A) was 5%, the “% plant inhibition” value ([7]; 0.893 lb/A) was 15% and the inhibition at 7.95803 g/ha ([7]; Triticum aestivum, post-emergence, 0.0071 lb/A, read-out: % plant inhibition) was 0%. It also gave an inhibition at 40.0143 g/ha ([7]; Triticum aestivum, post-emergence, 0.0357 lb/A, read-out: % plant inhibition) of 0%, an inhibition at 1000.92 g/ha ([7]; Triticum aestivum, post-emergence, 0.893 lb/A, read-out: % plant inhibition) of 20% and an inhibition at 5043.82 g/ha ([7]; Triticum aestivum, post-emergence, 4.5 lb/A, read-out: % plant inhibition) of 25%. It also gave an inhibition at 7.95803 g/ha ([8]; 0.0071 lb/A) of 0%, an inhibition at 40.0143 g/ha ([8]; 0.0357 lb/A) of 0% and an inhibition ([8]; 0.1725 lb/A) of 0%. It also gave an inhibition at 200.072 g/ha ([8]; 0.1785 lb/A) of 0%, an inhibition at 5043.82 g/ha ([8]; 4.5 lb/A) of 90% and an inhibition at 7.95803 g/ha ([9]; 0.0071 lb/A) of 0%. It also gave an inhibition at 40.0143 g/ha ([9]; 0.0357 lb/A) of 0%, an inhibition at 200.072 g/ha ([9]; 0.1785 lb/A) of 20% and an inhibition at 5043.82 g/ha ([9]; 4.5 lb/A) of 65%. For the same compound, the “% plant inhibition” value ([10]; 0.893 lb/A) was 10%, the inhibition at 7.95803 g/ha ([10]; post-emergence, 0.0071 lb/A, read-out: % plant inhibition) was 0% and the inhibition at 40.0143 g/ha ([10]; post-emergence, 0.0357 lb/A, read-out: % plant inhibition) was 0%. The inhibition at 200.072 g/ha ([10]; post-emergence, 0.1785 lb/A, read-out: % plant inhibition) was 0%, the inhibition at 5043.82 g/ha ([10]; post-emergence, 4.5 lb/A, read-out: % plant inhibition) was 35% and the “% plant inhibition” value ([11]; 0.893 lb/A) was 70%. For the same compound, the inhibition at 7.95803 g/ha ([11]; Abutilon theophrasti, post-emergence, 0.0071 lb/A, read-out: % plant inhibition) was 0%, the inhibition at 40.0143 g/ha ([11]; Abutilon theophrasti, post-emergence, 0.0357 lb/A, read-out: % plant inhibition) was 0% and the inhibition at 200.072 g/ha ([11]; Abutilon theophrasti, post-emergence, 0.1785 lb/A, read-out: % plant inhibition) was 45%. The inhibition at 1000.92 g/ha ([11]; Abutilon theophrasti, post-emergence, 0.893 lb/A, read-out: % plant inhibition) was 75%, the inhibition at 5043.82 g/ha ([11]; Abutilon theophrasti, post-emergence, 4.5 lb/A, read-out: % plant inhibition) was 100% and the inhibition at 7.95803 g/ha ([12]; Table 4a) was 0%. The inhibition at 7.95803 g/ha ([12]; Table 5a) was 0%, the inhibition at 40.0143 g/ha ([12]; Table 4a) was 0% and the inhibition at 40.0143 g/ha ([12]; Table 5a) was 0%. It also gave an inhibition ([12]; 0.1725 lb/A, Table 4a) of 0%, an inhibition at 200.072 g/ha ([12]; 0.1785 lb/A, Table 4a) of 0% and an inhibition at 1000.92 g/ha ([12]; Table 4a) of 0%. It also gave an inhibition at 1000.92 g/ha ([12]; Table 5a) of 35%, an inhibition at 5043.82 g/ha ([12]; Table 4a) of 0% and an inhibition at 5043.82 g/ha ([12]; Table 5a) of 45%. For the same compound, the “% plant inhibition” value ([13]; 0.893 lb/A) was 80%, the inhibition at 40.0143 g/ha ([13]; Ipomoea, pre-emergence, 0.0357 lb/A, read-out: % plant inhibition) was 0% and the inhibition at 1000.92 g/ha ([13]; Ipomoea, pre-emergence, 0.893 lb/A, read-out: % plant inhibition) was 85%. It also gave an inhibition at 5043.82 g/ha ([13]; Ipomoea, pre-emergence, 4.5 lb/A, read-out: % plant inhibition) of 85%, an inhibition at 40.0143 g/ha ([14]; 0.0357 lb/A) of 0% and an inhibition at 200.072 g/ha ([14]; 0.1785 lb/A) of 0%. It also gave an inhibition at 5043.82 g/ha ([14]; 4.5 lb/A) of 30%, an inhibition at 40.0143 g/ha ([15]; 0.0357 lb/A) of 0% and an inhibition at 200.072 g/ha ([15]; 0.1785 lb/A) of 0%. For the same compound, the inhibition at 1000.92 g/ha ([15]; 0.893 lb/A) was 35%, the inhibition at 5043.82 g/ha ([15]; 4.5 lb/A) was 80% and the “% plant inhibition” value ([16]; 0.893 lb/A) was 98%. It also gave an inhibition at 40.0143 g/ha ([16]; Abutilon theophrasti, pre-emergence, 0.0357 lb/A, read-out: % plant inhibition) of 0%, an inhibition at 1000.92 g/ha ([16]; Abutilon theophrasti, pre-emergence, 0.893 lb/A, read-out: % plant inhibition) of 100% and an inhibition at 5043.82 g/ha ([16]; Abutilon theophrasti, pre-emergence, 4.5 lb/A, read-out: % plant inhibition) of 100%.
